Assay type in all cases: physicochemical
What all share (conditions): read-out: Kinetic_solubility

The nature of data set [1]: Kinetic solubility of the compound in phosphate buffered saline at pH 6.5 after 20 hrs by shake flask method.
A short description of data set [2]: Kinetic solubility of the compound in HCl at pH 2 after 20 hrs by shake flask method.
Data set [3] can be described thus: Kinetic solubility of the compound in FaSSIF at pH 6.5 after 20 hrs by shake flask method.

The structures appear in SMILES notation. Values after ≈ are worked out from the molar mass of the structure shown.

Take `Fc1ccc(-c2nc3cnc(Nc4cc(C(F)(F)F)ccn4)cc3[nH]2)cc1F`: the solubility kinetic at 20 h in data set [1] is less than 5 µM; in data set [2], less than 5 µM; in data set [3], 50 to 100 µM (≈ 19.6 to 39.1 µg/mL).
Turning to `CNC(=O)c1ccc(Nc2cc3[nH]c(-c4ccc(C(F)(F)F)nc4)nc3cn2)nc1`, the solubility kinetic at 20 h in data set [1] was less than 5 µM; in data set [2], 170 µM (≈ 70.3 µg/mL); in data set [3], less than 5 µM.
Take `Fc1ccc(-c2nc3cnc(Nc4ccc(C(F)(F)F)cn4)cc3[nH]2)cc1F`: the solubility kinetic at 20 h in data set [1] was less than 5 µM; in data set [2], 6 µM (≈ 2.35 µg/mL); in data set [3], 50 to 100 µM (≈ 19.6 to 39.1 µg/mL).
Turning to `CC1(c2nc3cnc(Nc4ccc(C(F)(F)F)cn4)cc3[nH]2)CC1`, the solubility kinetic at 20 h in data set [1] is 188 µM (≈ 62.7 µg/mL); in data set [2], 200 µM (≈ 66.7 µg/mL); in data set [3], 179 µM (≈ 59.7 µg/mL).
For `FC(F)(F)c1cccc(-c2nc3cnc(Nc4ncccn4)cc3[nH]2)c1`, the values for the solubility kinetic at 20 h in data set [1] and in data set [2] were less than 5 µM and 155 µM (≈ 55.2 µg/mL), respectively.
On to `COC(=O)c1ccc(Nc2cc3[nH]c(-c4ccc(C(F)(F)F)nc4)nc3cn2)nc1`, for which the solubility kinetic at 20 h was 12 µM (≈ 4.97 µg/mL) in data set [1], 182 µM (≈ 75.4 µg/mL) in data set [2] and 16 µM (≈ 6.63 µg/mL) in data set [3].
In the case of `Fc1cnc(Nc2cc3[nH]c(-c4cccc(C(F)(F)F)c4)nc3cn2)c(F)c1`, the figures for the solubility kinetic at 20 h in data set [1], in data set [2] and in data set [3] were less than 5 µM, less than 5 µM and 50 to 100 µM (≈ 19.6 to 39.1 µg/mL), respectively.
`O=C(c1ccc(Nc2cc3[nH]c(-c4ccc(C(F)(F)F)nc4)nc3cn2)nc1)N1CCOCC1`: the solubility kinetic at 20 h in data set [1] amounted to 33 µM (≈ 15.5 µg/mL); in data set [2] it was 200 µM (≈ 93.9 µg/mL); in data set [3] it was 58 µM (≈ 27.2 µg/mL).
As for `FC(F)(F)c1cccc(-c2nc3cnc(Nc4cnccn4)cc3[nH]2)c1`, the results for the solubility kinetic at 20 h in data set [1] and in data set [2] were less than 5 µM and 155 µM (≈ 55.2 µg/mL), respectively.
Regarding `O=C(O)c1ccc(Nc2cc3[nH]c(-c4ccc(C(F)(F)F)nc4)nc3cn2)nc1`, the values for the solubility kinetic at 20 h in data set [1], in data set [2] and in data set [3] were less than 5 µM, 8 µM (≈ 3.2 µg/mL) and less than 5 µM, respectively.
As for `FC(F)(F)c1ccc(Nc2cc3[nH]c(C4CC4)nc3cn2)nc1`, the solubility kinetic at 20 h is less than 5 µM in data set [1], 198 µM (≈ 63.2 µg/mL) in data set [2] and 123 µM (≈ 39.3 µg/mL) in data set [3].
As to `FC(F)(F)c1cccc(-c2nc3cnc(Nc4cccnn4)cc3[nH]2)c1`, the solubility kinetic at 20 h in data set [1] was less than 5 µM; in data set [2], 161 µM (≈ 57.4 µg/mL).
With `O=C(NC1CC1)c1ccc(Nc2cc3[nH]c(-c4ccc(C(F)(F)F)nc4)nc3cn2)nc1`, the solubility kinetic at 20 h in data set [1] was less than 5 µM; in data set [2], 99 µM (≈ 43.5 µg/mL); in data set [3], less than 5 µM.
As to `COc1ccnc(Nc2cc3[nH]c(-c4cccc(C(F)(F)F)c4)nc3cn2)c1`, the solubility kinetic at 20 h in data set [1] and in data set [2] was less than 5 µM in each case.
As for `O=C(c1ccc(Nc2cc3[nH]c(-c4ccc(C(F)(F)F)nc4)nc3cn2)nc1)N1CCCC1`, the values for the solubility kinetic at 20 h in data set [1], in data set [2] and in data set [3] were less than 5 µM, 196 µM (≈ 88.9 µg/mL) and less than 5 µM, respectively.
For the compound `FC(F)(F)c1ccc(Nc2cc3[nH]c(CC4CC4)nc3cn2)nc1`, the results for the solubility kinetic at 20 h in data set [1], in data set [2] and in data set [3] were 118 µM (≈ 39.3 µg/mL), 186 µM (≈ 62 µg/mL) and 156 µM (≈ 52 µg/mL), respectively.
Take `FC(F)(F)Oc1ccc(-c2nc3cnc(Nc4ccccn4)cc3[nH]2)cc1`: the solubility kinetic at 20 h in data set [1] was less than 5 µM; in data set [2] it was 26 µM (≈ 9.65 µg/mL).
For the compound `N#Cc1ccc(Nc2cc3[nH]c(-c4cccc(C(F)(F)F)c4)nc3cn2)nc1`, the solubility kinetic at 20 h was less than 5 µM in data set [1], less than 5 µM in data set [2] and 50 to 100 µM (≈ 19 to 38 µg/mL) in data set [3].
Take `FC(F)(F)c1ccc(Nc2cc3[nH]c([C@H]4CC[C@H](C(F)(F)F)CC4)nc3cn2)nc1`: the solubility kinetic at 20 h was less than 5 µM in data set [1], 200 µM (≈ 85.9 µg/mL) in data set [2] and 104 µM (≈ 44.7 µg/mL) in data set [3].
Taken in the same sequence, the figures for `FC(F)(F)c1ccc(Nc2cc3[nH]c(C4CCOC4)nc3cn2)nc1` (configuration not stated) were 166 µM (≈ 58 µg/mL), 200 µM (≈ 69.9 µg/mL) and 180 µM (≈ 62.9 µg/mL).
For `O=C(c1ccc(Nc2cc3[nH]c(-c4ccc(C(F)(F)F)nc4)nc3cn2)nc1)N1CCNCC1`, the solubility kinetic at 20 h in data set [1] worked out at 168 µM (≈ 78.7 µg/mL); in data set [2], 200 µM (≈ 93.7 µg/mL); in data set [3], 161 µM (≈ 75.4 µg/mL).
On to `FC(F)(F)c1cccc(-c2nc3cnc(Nc4ccncn4)cc3[nH]2)c1`, for which the solubility kinetic at 20 h in data set [1] was less than 5 µM; in data set [2], 200 µM (≈ 71.3 µg/mL).
Take `O=C(O)c1ccc(Nc2cc3[nH]c(-c4ccc(F)c(F)c4)nc3cn2)nc1`: the solubility kinetic at 20 h in data set [1] was 7 µM (≈ 2.57 µg/mL); in data set [2] it was 11 µM (≈ 4.04 µg/mL); in data set [3], 9 µM (≈ 3.31 µg/mL).
Take `CN1CCN(c2ccc(Nc3cc4[nH]c(-c5cccc(C(F)(F)F)c5)nc4cn3)nc2)CC1`: the solubility kinetic at 20 h in data set [2] is 190 µM (≈ 86.2 µg/mL); in data set [3] it was less than 5 µM.
Regarding `O=C(O)c1ccc(Nc2cc3[nH]c(-c4cccc(C(F)(F)F)c4)nc3cn2)nc1`, the solubility kinetic at 20 h in data set [1] was 6 µM (≈ 2.4 µg/mL); in data set [2] it was less than 5 µM; in data set [3], 6 µM (≈ 2.4 µg/mL).
Regarding `FC(F)(F)c1cccc(-c2nc3cnc(Nc4cccc(C(F)(F)F)n4)cc3[nH]2)c1`, the solubility kinetic at 20 h was less than 5 µM in data set [1], 51 µM (≈ 21.6 µg/mL) in data set [2] and 50 to 100 µM (≈ 21.2 to 42.3 µg/mL) in data set [3].
With `FC(F)(F)c1cccc(-c2nc3cnc(Nc4ccncc4)cc3[nH]2)c1`, the solubility kinetic at 20 h in data set [1] was 10 µM (≈ 3.55 µg/mL); in data set [2] it was 200 µM (≈ 71.1 µg/mL).
With `Fc1ccc(Nc2cc3[nH]c(C4CCC(F)(F)CC4)nc3cn2)nc1`, the solubility kinetic at 20 h came to 170 µM (≈ 59 µg/mL) in data set [1], 200 µM (≈ 69.5 µg/mL) in data set [2] and 170 µM (≈ 59 µg/mL) in data set [3].
With `CCOC(=O)c1ccc(Nc2cc3[nH]c(-c4ccc(C(F)(F)F)nc4)nc3cn2)nc1`, the solubility kinetic at 20 h in data set [1] is less than 5 µM; in data set [2], 164 µM (≈ 70.3 µg/mL); in data set [3] it was 127 µM (≈ 54.4 µg/mL).
For `COc1cccnc1Nc1cc2[nH]c(-c3cccc(C(F)(F)F)c3)nc2cn1`, the solubility kinetic at 20 h is less than 5 µM in data set [1] and 116 µM (≈ 44.7 µg/mL) in data set [2].
Taken in the same sequence, the figures for `COc1cccc(Nc2cc3[nH]c(-c4cccc(C(F)(F)F)c4)nc3cn2)n1` were less than 5 µM and 85 µM (≈ 32.8 µg/mL).
Consider `FC1(F)CC(c2nc3cnc(Nc4ccc(C(F)(F)F)cn4)cc3[nH]2)C1`, for which the figures for the solubility kinetic at 20 h in data set [1], in data set [2] and in data set [3] were 118 µM (≈ 43.6 µg/mL), 181 µM (≈ 66.8 µg/mL) and 161 µM (≈ 59.5 µg/mL), respectively.
Taken in the same sequence, the figures for `FC1(F)CCC(c2nc3cnc(Nc4ccc(C(F)(F)F)cn4)cc3[nH]2)C1` (configuration not stated) were 120 µM (≈ 46 µg/mL), 185 µM (≈ 70.9 µg/mL) and 163 µM (≈ 62.5 µg/mL).
Turning to `FC(F)(F)c1ccc(Nc2cc3[nH]c(C4CCOCC4)nc3cn2)nc1`, the solubility kinetic at 20 h was determined as 155 µM (≈ 56.3 µg/mL) in data set [1], 196 µM (≈ 71.2 µg/mL) in data set [2] and 168 µM (≈ 61 µg/mL) in data set [3].
In the case of `COc1ccc(Nc2cc3[nH]c(-c4cccc(C(F)(F)F)c4)nc3cn2)nc1`, the solubility kinetic at 20 h in data set [1] and in data set [2] was less than 5 µM in each case.
Regarding `Fc1ccnc(Nc2cc3[nH]c(-c4ccc(F)c(F)c4)nc3cn2)c1`, the figures for the solubility kinetic at 20 h in data set [1], in data set [2] and in data set [3] were less than 5 µM, 166 µM (≈ 56.7 µg/mL) and 50 to 100 µM (≈ 17.1 to 34.1 µg/mL), respectively.

Values taken from ChEMBL document CHEMBL4184318, “Identification of Fast-Acting 2,6-Disubstituted Imidazopyridines That Are Efficacious in the in Vivo Humanized Plasmodium falciparum NODscidIL2Rγ null Mouse Model of Malaria” (J Med Chem, 2018).
